Reference: patent publication EP0435794A1, “Alkenyl- or heteroaryl thio, sulfone, sulfoxy herbicides” (RHONE-POULENC AGROCHIMIE, priority 1989, dated 1991)

Legend:
Assay type in all cases: in vivo
[1] = test system: Echinochloa crus galli; assay: Exemple D: herbicide application pre or post emergence on submerged plants (rice paddy model); details: 24 days; for % d'efficacité ECHINOCHLOA CRUS GALLI (1 feuille): 1-leaf stage; for % d'efficacité ECHINOCHLOA CRUS GALLI (prélevée): pre-emergence
Source text: (§1) Exemple D : Application herbicide en pré ou post levée d'espèces végétales submergées (modèle rizière)
(§2) Dans des pots de 9 x 9 x 9 cm remplis de terre agricole on sème un nombre de graines ou on plante un nombre de bulbes ou rhizomes déterminé en fonction de l'espèce végétale ou de la grosseur des organes. Pour le riz, 4 plants au stade 2-3 feuilles sont transplantés dans un pot rempli de terre végétale 4 jours avant le traitement.
(§3) Les pots sont ensuite immergés dans un bac de taille adapté aux pots de manière à ce que l'eau recouvre de 1 à 2 cm la surface du sol.
(§4) Le stade de traitement est le stade prélevée ou 1 à 2 feuilles développées des adventices. Le traitement est effectué par répartition de la bouillie dans l'eau de submersion en quantité correspondant à une dose d'application de 500 l/ha et contenant la matière active à la concentration requise.
(§5) La bouillie utilisée pour le traitement est une solution ou suspension de la matière active dans un mélange acétone/eau en proportion 50/50, en présence de 0,05 % en poids de Cemulsol NP 10 (agent tensioactif constitué d'alkylphénol polyéthoxylé, notamment de nonylphénol polyéthoxylé) et 0,04 % en poids de tween 20 (agent tensio-actif constitué d'un oléate de dérivé polyoxyéthyléné du sorbitol).
(§6) Dans le cas d'une suspension, celle-ci est obtenue en mélangeant et broyant les ingrédients dans un microniseur de façon à obtenir une grosseur moyenne de particules inférieures à 40 microns.
(§7) Le niveau d'eau de submersion est ensuite maintenu par apport d'eau tout au long de la durée de l'expérimentation soit […]. Les bacs contenant les pots sont placés dans une serre régulée en température à 18°C la nuit et 22°C le jour et en humidité à 70 % d'humidité relative.
(§8) Au bout de 24 jours, on compte le nombre de plantes vivantes dans les pots traités par la bouillie contenant la matière active à tester et le nombre de plantes vivantes dans un pot témoin traité selon les mêmes conditions, mais au moyen d'une bouillie ne contenant pas de matière active. On mesure ainsi un pourcentage (D) des destructions du nombre de pieds dans le pot traité par rapport au nombre de plantes dans les pots non traités (témoin). On mesure, sur les plantes traitées restantes, le pourcentage de réduction de taille (RT) par rapport aux plantes témoin. Le pourcentage du volume foliaire non détruit par le produit est donc donné par la formule: ([100-D] x [100-RT])/(100)= A [formula]
(§9) Cette valeur A est transformée en notation de 0 à 5 selon l'échelle suivante:
(§10) Les résultats obtenus sont présentés dans le tableau suivant pour des doses d'application de 500, 1000 ou 2000 g de matière active par hectare.

[2] = test system: ALISMA CANALICULATUM; assay: as above; details: 2-leaf stage, 24 days
Source text: as §1, §2, §3, §4, §5, §6, §7, §8, §9, §10

[3] = test system: CYPERUS SEROTINUS; assay: as above; details: 24 days; for % d'efficacité CYPERUS SEROTINUS (1 feuille): 1-leaf stage; for % d'efficacité CYPERUS SEROTINUS (prélevée): pre-emergence
Source text: as §1, §2, §3, §4, §5, §6, §7, §8, §9, §10

[4] = test system: ORYSA SATIVA Cv Nihonbare; assay: Exemple D: herbicide application on submerged plants (rice paddy model), transplanted rice; details: rice transplanted 4 days before treatment, 24 days
Source text: as §1, §2, §3, §4, §5, §6, §7, §8, §9, §10
COMPOSE N°5/RIZ (transplanté 4 jours avant traitement)

[5] = 500 g de matière active par hectare
[6] = 1000 g de matière active par hectare

CCCCOCN(C(=O)CCl)c1c(CC)cccc1CC [Butachlor, reference compound]
% d'efficacité ECHINOCHLOA CRUS GALLI (1 feuille) [1, 5]: 1 (70 à 90) | % d'efficacité ECHINOCHLOA CRUS GALLI (1 feuille) [1, 6]: 4 (10 à 30) | % d'efficacité ECHINOCHLOA CRUS GALLI (prélevée) [1, 5]: 5 (0 à 10) | % d'efficacité ECHINOCHLOA CRUS GALLI (prélevée) [1, 6]: 5 (0 à 10) | % d'efficacité ALISMA CANALICULATUM (2 feuilles) [2, 5]: 4 (10 à 30) | % d'efficacité ALISMA CANALICULATUM (2 feuilles) [2, 6]: 5 (0 à 10) | % d'efficacité CYPERUS SEROTINUS (1 feuille) [3, 5]: 0 (90 à 100) | % d'efficacité CYPERUS SEROTINUS (1 feuille) [3, 6]: 1 (70 à 90) | % d'efficacité CYPERUS SEROTINUS (prélevée) [3, 5]: 0 (90 à 100) | % d'efficacité CYPERUS SEROTINUS (prélevée) [3, 6]: 1 (70 à 90) | % d'efficacité ORYSA SATIVA Cv Nihonbare [4, 5]: 0 (90 à 100) | % d'efficacité ORYSA SATIVA Cv Nihonbare [4, 6]: 0 (90 à 100)
